The target in assay [1] is T1, Arabidopsis HPPD (SEQ ID NO:53), wild-type (Arabidopsis thaliana, UniProt P93836).
T1 construct: His6 (N); made in house; host or cells: E. coli BL21 (DE3)
T1 sequence (P93836 1-445): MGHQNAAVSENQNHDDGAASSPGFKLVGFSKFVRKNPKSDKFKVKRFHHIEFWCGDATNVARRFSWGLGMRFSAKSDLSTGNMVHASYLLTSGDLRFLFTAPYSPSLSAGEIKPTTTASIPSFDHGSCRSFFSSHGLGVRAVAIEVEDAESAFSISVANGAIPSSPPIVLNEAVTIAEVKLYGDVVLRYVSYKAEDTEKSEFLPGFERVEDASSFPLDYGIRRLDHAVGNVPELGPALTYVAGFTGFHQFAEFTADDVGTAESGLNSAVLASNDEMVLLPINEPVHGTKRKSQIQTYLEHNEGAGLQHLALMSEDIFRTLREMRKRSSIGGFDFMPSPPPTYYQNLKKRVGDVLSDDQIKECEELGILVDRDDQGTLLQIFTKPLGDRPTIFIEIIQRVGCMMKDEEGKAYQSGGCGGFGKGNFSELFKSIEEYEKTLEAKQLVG
Kind of assay: HPPD activity assay (HGA by HPLC), wild-type enzyme characterization. It is filed as biochemical. The conditions noted are these: Arabidopsis HPPD. On the procedure:
(§1) HPPD produces homogentisic acid and CO2 from 4-hydroxyphenylpyruvate (4-HPP) and 02. The activity assay for HPPD is based on the analysis of homogentisic acid by reversed phase HPLC. The assay mixture can contain 150 mM potassium phosphate buffer pH 7.0, 50 mM L-ascorbic acid, 100 μM Catalase (Sigma-Aldrich), 1 μM FeSO4 and 0.2 units of purified HPPD enzyme in a total volume of 505 μl. 1 unit is defined as the amount of enzyme that is required to produce 1 nmol of HGA per minute at 20° C.
(§2) After a preincubation of 30 min the reaction is started by adding 4-HPP to a final concentration of 0.05 mM. The reaction is allowed to proceed for 45 min at room temperature. The reaction is stopped by the addition of 50 μl of 4.5 M phosphoric acid. The sample is filtered using a […] pore size PVDF filtration device.
(§3) 5 μl of the cleared sample is analyzed on an UPLC HSS T3 column (particle size 1.8 μm, dimensions 2.1×50 mm; Waters) by isocratic elution using 90% 20 mM NaH2PO4 pH 2.2, 10% methanol (v/v).
(§4) HGA is detected electrochemically at 750 mV (mode: DC; polarity: positive) and quantified by integrating peak areas (Empower software; Waters).
(§5) Inhibitors are dissolved in DMSO (dimethylsulfoxide) to a concentration of 0.5 mM. From this stock solution serial five-fold dilutions are prepared in DMSO, which are used in the assay. The respective inhibitor solution accounts for 1% of the assay volume. […] Activities are normalized by setting the uninhibited enzyme activity to 100%. IC50 values are calculated using non-linear regression.
(§6) Using methods which are described in the above examples or well known in the art, purified, recombinant wild-type HPPD enzymes are characterized with respect to their kinetic properties and sensitivity towards HPPD inhibiting herbicides. Apparent michaelis constants (Km) and maximal reaction velocities (Vmax) are calculated by non-linear regression with the software GraphPad Prism 5 (GraphPad Software, La Jolla, USA) using a substrate inhibition model. […] Weighted means (by standard error) of Km and IC50 values are calculated from at least three independent experiments.
(§7) Field performance of the HPPD enzyme, which is used as a herbicide tolerance trait, may depend not only on its lack of sensitivity towards HPPD inhibiting herbicides but also on its activity. To assess the potential performance of a herbicide tolerance trait a tolerance index (TI) is calculated using the following formula: […]
(§8) Easy comparison and ranking of each trait is enabled by normalizing tolerance indexes on Arabidopsis wild-type HPPD.

In assay [2] the target is T2, Hordeum HPPD (SEQ ID NO:2), wild-type (Hordeum vulgare, UniProt O48604, A164G/R146V/R147D/R148G).
T2 construct: His (N); made in house; host or cells: E. coli BL21 (DE3)
T2 sequence (O48604 whole entry R146V/R147D/R148G/A164G): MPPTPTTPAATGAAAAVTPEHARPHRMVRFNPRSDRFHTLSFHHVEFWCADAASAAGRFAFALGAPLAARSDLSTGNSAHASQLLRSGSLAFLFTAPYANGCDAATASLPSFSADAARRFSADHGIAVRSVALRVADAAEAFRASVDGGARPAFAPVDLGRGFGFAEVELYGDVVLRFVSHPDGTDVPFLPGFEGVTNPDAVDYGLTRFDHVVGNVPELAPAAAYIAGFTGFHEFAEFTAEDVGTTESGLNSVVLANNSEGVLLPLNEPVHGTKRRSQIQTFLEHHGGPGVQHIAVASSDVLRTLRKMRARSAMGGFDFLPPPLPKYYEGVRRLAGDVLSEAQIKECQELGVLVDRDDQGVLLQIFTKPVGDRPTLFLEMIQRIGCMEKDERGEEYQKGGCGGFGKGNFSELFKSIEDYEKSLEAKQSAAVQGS
The assay is described as above. It is filed as biochemical. The following applies: Hordeum HPPD. On the procedure: as §1, §2, §3, §4, §5, §6, §7, §8

Setting [3] is: apparent Km, read-out: Km [μM] (4-HPP).
Where [4] appears, read: apparent kcat from Vmax, substrate 4-HPP.

On to `O=C(O)C(=O)Cc1ccc(O)cc1` [Inhibitor 4-HPP, 4-hydroxyphenylpyruvate, reference compound], for which the figures for the Km in assay [1] (setting [3]) and in assay [2] (setting [3]) were 13 µM and 26 µM, respectively. In addition, the kcat came to 12.9 S^−1 in assay [1] (setting [4]) and 11.5 S^−1 in assay [2] (setting [4]).

The values are drawn from patent publication US20160102317A1, “PLANTS HAVING INCREASED TOLERANCE TO HERBICIDES” (BASF SE, priority 2013, published 2016).
